Assay results reported in ChEMBL document CHEMBL1134215, “Influence of chain length and N-alkylation on the selective serotonin receptor ligand 9-(aminomethyl)-9,10-dihydroanthracene” (Bioorg Med Chem Lett, 2001).

Key:
Assay type in all cases: cell-based
[1] = molecular target: 5-hydroxytryptamine receptor 2A (Homo sapiens, UniProt P28223); test: Displacement of [3H]ketanserin from 5-hydroxytryptamine 2A receptor expressed NIH3T3 cells
D(2) dopamine receptor = D(2) dopamine receptor (Mus musculus, UniProt P61168); test: Binding affinity to Dopamine receptor D2 using [3H]spiperone as radioligand in stably transfected NIH3T3 cells
[2] = molecular target: Sodium-dependent noradrenaline transporter (Mus musculus, UniProt O55192); test: Binding affinity to Norepinephrine transporter using [3H]-[…] as radioligand in stably transfected NIH3T3 cells
[3] = molecular target: Sodium-dependent serotonin transporter (Mus musculus, UniProt Q60857); test: Binding affinity to Serotonin transporter using [3H]-paroxetine as radioligand in stably transfected NIH3T3 cells
[4] = molecular target: T1, 5-hydroxytryptamine receptor 2C (Mus musculus, UniProt P34968); test: Binding affinity to 5-hydroxytryptamine 2C receptor using [3H]Mesulergine as radioligand in stably transfected NIH3T3 cells
T1 sequence (P34968 whole entry): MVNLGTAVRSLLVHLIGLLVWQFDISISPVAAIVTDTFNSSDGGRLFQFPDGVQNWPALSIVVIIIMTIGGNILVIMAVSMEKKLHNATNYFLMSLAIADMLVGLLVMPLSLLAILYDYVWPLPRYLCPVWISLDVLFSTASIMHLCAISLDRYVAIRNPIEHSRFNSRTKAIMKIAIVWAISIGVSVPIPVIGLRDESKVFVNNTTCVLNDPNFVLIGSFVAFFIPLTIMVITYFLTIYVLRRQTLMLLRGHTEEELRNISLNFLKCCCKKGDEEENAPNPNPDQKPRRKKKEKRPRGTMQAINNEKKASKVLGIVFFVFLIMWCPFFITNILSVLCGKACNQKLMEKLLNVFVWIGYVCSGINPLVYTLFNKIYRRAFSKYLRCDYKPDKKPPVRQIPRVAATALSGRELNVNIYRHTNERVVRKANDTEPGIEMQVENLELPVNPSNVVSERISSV

[5] = molecular target: T1, 5-hydroxytryptamine receptor 2C; test: Binding affinity to 5-hydroxytryptamine 2C receptor measured using radioligand [3H]Mesulergine in stably transfected NIH3T3 cells

Sequence of D(2) dopamine receptor (P61168 whole entry): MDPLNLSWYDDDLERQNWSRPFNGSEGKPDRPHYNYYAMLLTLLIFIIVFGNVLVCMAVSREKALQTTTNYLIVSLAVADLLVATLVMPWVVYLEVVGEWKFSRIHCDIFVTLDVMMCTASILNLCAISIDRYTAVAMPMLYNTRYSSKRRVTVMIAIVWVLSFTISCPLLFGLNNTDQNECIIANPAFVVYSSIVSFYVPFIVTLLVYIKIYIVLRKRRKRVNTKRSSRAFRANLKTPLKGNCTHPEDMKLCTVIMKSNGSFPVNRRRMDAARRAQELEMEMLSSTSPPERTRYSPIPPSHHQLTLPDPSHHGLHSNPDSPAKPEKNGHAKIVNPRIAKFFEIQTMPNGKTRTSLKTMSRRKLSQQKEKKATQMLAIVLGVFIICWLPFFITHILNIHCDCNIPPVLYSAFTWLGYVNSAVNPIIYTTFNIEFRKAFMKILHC
Sequence of 5-hydroxytryptamine receptor 2A (P28223 whole entry): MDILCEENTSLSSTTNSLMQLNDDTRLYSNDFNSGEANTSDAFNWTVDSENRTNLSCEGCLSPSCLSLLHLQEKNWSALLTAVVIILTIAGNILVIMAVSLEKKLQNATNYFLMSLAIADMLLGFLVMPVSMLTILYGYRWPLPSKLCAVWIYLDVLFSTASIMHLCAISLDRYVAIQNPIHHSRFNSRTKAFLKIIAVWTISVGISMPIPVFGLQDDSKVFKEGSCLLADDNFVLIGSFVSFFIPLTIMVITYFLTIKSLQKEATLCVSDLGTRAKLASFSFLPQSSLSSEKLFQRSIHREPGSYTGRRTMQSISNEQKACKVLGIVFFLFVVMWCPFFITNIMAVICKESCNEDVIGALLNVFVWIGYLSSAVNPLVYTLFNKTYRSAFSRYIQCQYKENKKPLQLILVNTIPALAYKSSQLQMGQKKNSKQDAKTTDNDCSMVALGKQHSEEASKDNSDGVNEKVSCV
Sequence of Sodium-dependent noradrenaline transporter (O55192 whole entry): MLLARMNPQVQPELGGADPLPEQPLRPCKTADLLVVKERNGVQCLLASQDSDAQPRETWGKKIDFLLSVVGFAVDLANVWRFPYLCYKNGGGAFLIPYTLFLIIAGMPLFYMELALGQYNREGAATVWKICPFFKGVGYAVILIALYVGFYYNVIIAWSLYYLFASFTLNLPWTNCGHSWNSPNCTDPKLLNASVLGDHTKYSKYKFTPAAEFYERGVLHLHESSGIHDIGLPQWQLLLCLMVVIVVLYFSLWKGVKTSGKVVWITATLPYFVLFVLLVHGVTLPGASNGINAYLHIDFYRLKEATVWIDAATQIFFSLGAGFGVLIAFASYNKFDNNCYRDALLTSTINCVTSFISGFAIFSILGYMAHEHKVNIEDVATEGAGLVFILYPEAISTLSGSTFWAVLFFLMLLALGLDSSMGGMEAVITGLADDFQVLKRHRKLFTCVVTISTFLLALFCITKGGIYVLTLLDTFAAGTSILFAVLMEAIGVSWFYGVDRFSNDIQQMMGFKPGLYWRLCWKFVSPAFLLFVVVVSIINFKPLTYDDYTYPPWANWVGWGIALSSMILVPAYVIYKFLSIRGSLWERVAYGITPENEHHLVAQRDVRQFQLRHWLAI
Sequence of Sodium-dependent serotonin transporter (Q60857 whole entry): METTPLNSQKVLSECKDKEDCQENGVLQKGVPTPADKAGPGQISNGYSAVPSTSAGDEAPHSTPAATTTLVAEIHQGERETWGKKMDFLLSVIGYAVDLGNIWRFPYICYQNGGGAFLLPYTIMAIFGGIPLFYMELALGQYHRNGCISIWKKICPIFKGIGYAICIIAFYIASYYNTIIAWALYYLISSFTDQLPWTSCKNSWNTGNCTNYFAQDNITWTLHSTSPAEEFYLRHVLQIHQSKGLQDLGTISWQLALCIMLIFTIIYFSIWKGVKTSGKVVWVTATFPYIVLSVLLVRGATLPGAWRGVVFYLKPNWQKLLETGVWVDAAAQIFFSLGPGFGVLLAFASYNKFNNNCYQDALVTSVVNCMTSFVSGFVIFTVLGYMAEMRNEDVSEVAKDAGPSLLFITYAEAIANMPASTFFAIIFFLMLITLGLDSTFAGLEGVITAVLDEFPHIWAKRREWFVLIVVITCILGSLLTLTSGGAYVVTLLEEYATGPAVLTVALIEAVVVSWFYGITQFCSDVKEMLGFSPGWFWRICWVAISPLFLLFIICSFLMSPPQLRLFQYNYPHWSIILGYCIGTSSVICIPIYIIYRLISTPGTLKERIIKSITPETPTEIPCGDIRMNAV

Row | Compound | Ki [1] [nM] | other results
1 | CNCCCC1c2ccccc2Cc2ccccc21 | 13 | 
2 | CN(C)CCCN1c2ccccc2CCc2ccccc21 [IMIPRAMINE] |  | Ki (D(2) dopamine receptor): 726 nM
3 | CNCC1c2ccccc2Cc2ccccc21 | 52 | 
4 | CN1CCC(=C2c3ccccc3C=Cc3ccccc32)CC1 [CYPROHEPTADINE] |  | Ki [2]: 290 nM; Ki [3]: 4.1 µM; Ki [4]: 11 nM; Ki (D(2) dopamine receptor): 112 nM
5 | NCC1c2ccccc2Cc2ccccc21 |  | Ki [5]: 43 nM; Ki [2]: > 10000 nM; Ki [3]: > 10 µM; Ki (D(2) dopamine receptor): > 10000 nM
6 | NCCCC1c2ccccc2Cc2ccccc21 | 32 | 
7 | CN(C)CCCC1c2ccccc2Cc2ccccc21 | 22 | 

Continued, in another order:

Row | Ki [1] [nM] | Compound | other results
8 | 12000 | NC1c2ccccc2Cc2ccccc21 | 
9 | 4000 | C[N+](C)(C)CC1c2ccccc2Cc2ccccc21 | 
10 | 480 | NCCC1c2ccccc2Cc2ccccc21 | 
11 | 397 | NCCCN1c2ccccc2CCc2ccccc21 | 
12 | 721 | c1ccc(CNCC2c3ccccc3Cc3ccccc32)cc1 | 
13 | 540 | CN(C)CC1c2ccccc2Cc2ccccc21 | 
